# US8003692B2 (priority 2007, dated 2011)
# Several values for one entry are separate records, joined by “and”; a condition that tells them apart may be missing. Equal values may be shown once. Entries after “also recorded” stand apart in the source; their conditions may differ. Read-outs that look alike come from different tables or passages of the source.
# Columns and labels:
# [1] = biological target: anthrax edema factor (EF) (Bacillus anthracis, UniProt P40136); assay: cell-based
# Cholera toxin (CT) = details: mouse, in vivo
# [2] = system: ETEC H10507 or other enteric bacteria; type: cell-based, E. coli and Salmonella
# [3] = system: bacterial adhesion to HeLa cells; type: cell-based
# [4] = system: bacterial adhesion to Caco-2 cells; type: cell-based
# [5] = system: Enterotoxigenic E. coli (ETEC); details: mouse, in vivo
# physchem = details: organic solvent or mixture
# cholera toxin = type: cell-based, Vibrio cholerae
# Chain of anthrax edema factor (EF) (P40136 whole entry, looked up): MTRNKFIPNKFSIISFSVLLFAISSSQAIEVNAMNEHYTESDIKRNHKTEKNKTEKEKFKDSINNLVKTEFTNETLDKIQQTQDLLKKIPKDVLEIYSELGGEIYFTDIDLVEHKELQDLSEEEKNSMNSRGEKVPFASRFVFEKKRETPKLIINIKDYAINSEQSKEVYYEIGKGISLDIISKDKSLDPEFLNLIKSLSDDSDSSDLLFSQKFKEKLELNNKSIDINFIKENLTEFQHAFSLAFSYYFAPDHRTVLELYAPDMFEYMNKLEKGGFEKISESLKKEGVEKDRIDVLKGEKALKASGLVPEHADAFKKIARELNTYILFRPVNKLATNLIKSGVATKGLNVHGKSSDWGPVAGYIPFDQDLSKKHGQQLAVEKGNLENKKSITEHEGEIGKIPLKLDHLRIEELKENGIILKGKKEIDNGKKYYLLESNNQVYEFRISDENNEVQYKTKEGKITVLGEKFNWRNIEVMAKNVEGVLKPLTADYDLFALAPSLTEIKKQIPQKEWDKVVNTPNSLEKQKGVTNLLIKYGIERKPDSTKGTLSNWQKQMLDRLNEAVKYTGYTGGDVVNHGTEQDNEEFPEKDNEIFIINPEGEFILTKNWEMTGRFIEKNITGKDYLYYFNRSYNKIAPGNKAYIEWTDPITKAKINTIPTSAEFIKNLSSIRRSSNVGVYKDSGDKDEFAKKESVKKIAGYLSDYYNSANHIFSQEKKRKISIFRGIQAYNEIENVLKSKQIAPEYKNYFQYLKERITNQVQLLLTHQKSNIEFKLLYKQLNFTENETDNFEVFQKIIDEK
smiles,measurement,setting,value
"Cc1c(NC(=O)c2cccc3c2C(=O)c2ccccc2-3)cccc1C(=O)O [FIV-55, 2-Methyl-3-[(9-oxo-9H-fluorene-1-carbonyl)-amino]-benzoic acid]",IC50,[1]; IC50,11.4 µM
"COc1cccc(C2=CC(=O)CCC2)c1 [FI-15, 3-(3-Methoxy-phenyl)-cyclohex-2-enone]",IC50,[1]; read-out: IC-50,30 µM
"COc1cccc(C2=CC(=O)CC(c3ccc(F)cc3)C2)c1 (centres unmarked) [FI-2, 5-(4-Fluoro-phenyl)-3-(3-methoxy-phenyl)-cyclohex-2-enone]",inhibition of EF / Edema Toxin induced cAMP production (in words),[1],cAMP inhibitory activity
same,IC50,[1]; IC50,28 µM
same,IC50,[1]; Selected assay results (IC50),21.4 µM and 27.3 µM
same,cytotoxicity in LDH assay (in words),RAW 264.7 cells,minimal cytotoxic effect
same,toxic effects in the animals (in words),Cholera toxin (CT); Swiss-Webster,number of animals surviving the full 6 hour of the incubation was reduced by half
same,Reduction of fluid accumulation,Cholera toxin (CT),Yes
same,Toxicity,Cholera toxin (CT),No
same,toxic effects in the animals (in words),Cholera toxin (CT),highly toxic
"O=C(O)c1cccc(NC(=O)c2cccc3c2C(=O)c2ccccc2-3)c1 [FIV-50, 3-[(9-Oxo-9H-fluorene-1-carbonyl)-amino]-benzoic acid]",inhibition of EF / Edema Toxin induced cAMP production (in words),[1],extremely effective; also recorded: more active than PGE2-imidazole
same,IC50,[1]; IC50,1.7 to 9 µM
same,IC50,[1]; IC50 values,1.7 to 5 µM
same,IC50,"[1]; IC50 values, mean",4.74 µM
same,IC50,"[1]; IC50 values, range",0.291 to 12.3 µM
same,effect on bacterial growth rate (in words),[2],no effect on growth
same,effect on bacterial adherence (in words),[3],Reduction in adherence was only observed in ETEC
same,effect on bacterial adherence (in words),[4],no reduction in adherence
same,cytotoxicity in LDH assay (in words),RAW 264.7 cells,no obvious cytotoxic effect
same,differences in the number of bacteria recovered,[5],3 logs
same,Reduction of fluid accumulation,Cholera toxin (CT),Yes
same,Toxicity,Cholera toxin (CT),No
same,solubility,physchem,≥ 100 mM
"O=C(Nc1ccc(F)c(Cl)c1)c1cccc2c1C(=O)c1ccccc1-2 [FIV-60, 9-Oxo-9H-fluorene-1-carboxylic acid (3-chloro-4-fluoro-phenyl)-amide]",IC50,[1]; IC50,3.8 µM
"COc1cccc(C2=CC(=O)CCC2)n1 [FI-9, 3-(6-Methoxy-pyridin-2-yl)-cyclohex-2-enone]",inhibition of EF / Edema Toxin induced cAMP production (in words),[1],not active
"O=C(O)c1cccc(NC(=O)c2cccc3c2C(=O)c2ccccc2-3)c1O [FIV-39, 2-Hydroxy-3-[(9-oxo-9H-fluorene-1-carbonyl)-amino]-benzoic acid]",IC50,[1]; IC50,5.6 µM
"COc1cccc(C2=C(C)C(=O)CC2)n1 [FI-3, 3-(6-Methoxy-pyridin-2-yl)-2-methyl-cyclopent-2-enone]",inhibition of EF / Edema Toxin induced cAMP production (in words),[1],most consistently been active; also recorded: dose-dependent activity and reduced extracellular cAMP accumulation
same,IC50,[1]; Selected assay results (IC50),38.8 µM and 64.1 µM and 11.1 µM and 29.4 µM
same,IC50,[1]; read-out: IC50,30 µM
same,IC50,[1]; read-out: Selected assay results (IC50),29.9 µM
same,inhibition of cholera toxin induced cAMP (in words),cholera toxin,"most consistently been active; also recorded: inhibits cholera toxin induced cAMP, but not quite as well as PGE2-imidazole"
same,toxic effects in the animals (in words),Cholera toxin (CT); Swiss-Webster,several animals treated with the CT+FI-3 mixture died
same,Reduction of fluid accumulation,Cholera toxin (CT),Yes
same,toxic effects in the animals (in words),Cholera toxin (CT),"displayed edema, blood and fluid accumulation"
"O=C1C=C(c2ccc3[nH]ccc3c2)CCC1 [FI-17, 3-(1H-Indol-5-yl)-cyclohex-2-enone]",inhibition of EF / Edema Toxin induced cAMP production (in words),[1],comparable activity to the best compounds
same,IC50,[1]; read-out: IC-50,56 µM
"O=C1C=C(c2ccc3c(c2)OCO3)CCC1 [FI-18, 3-Benzo[1,3]dioxol-5-yl-cyclohex-2-enone]",IC50,[1]; read-out: IC-50,53 µM
"O=C(O)c1ccc(/N=C/c2c3ccccc3cc3ccccc23)cc1O [FIII-1, 4-[(Anthracen-9-ylmethylene)-amino]-2-hydroxy-benzoic acid]",inhibition of EF / Edema Toxin induced cAMP production (in words),[1],more active than PGE2-imidazole
same,IC50,[1]; read-out: IC50 values,9 µM
"COc1cccc(C2=C(C)C(=O)CC2)n1 [FI-21, 3-(6-Methoxy-pyridin-2-yl)-2-methyl-cyclopent-2-enone]",inhibition of EF / Edema Toxin induced cAMP production (in words),[1],good activity
same,IC50,[1]; read-out: IC-50,30 µM
"N=C(N)c1cccc(NC(=O)c2cccc3c2C(=O)c2ccccc2-3)c1 [FIV-68, 9-Oxo-9H-fluorene-1-carboxylic acid (3-carbamimidoyl-phenyl)-amide]",IC50,[1]; IC50,2.71 µM
"O=C(Nc1cccc(OC(F)(F)F)c1)c1cccc2c1C(=O)c1ccccc1-2 [FIV-67, 9-Oxo-9H-fluorene-1-carboxylic acid (3-trifluoromethoxy-phenyl)-amide]",IC50,[1]; IC50,6.9 µM
"COc1ccc(C2=C(C)C(=O)CC2)cn1 [FI-14, 3-(6-Methoxy-pyridin-3-yl)-2-methyl-cyclopent-2-enone]",inhibition of EF / Edema Toxin induced cAMP production (in words),[1],good activity
same,IC50,[1]; read-out: IC-50,24 µM
"CN(C)c1cccc(NC(=O)c2cccc3c2C(=O)c2ccccc2-3)c1 [FIV-65, 9-Oxo-9H-fluorene-1-carboxylic acid (3-dimethylamino-phenyl)-amide]",IC50,[1]; IC50,1.5 µM
"O=C(Nc1ccccc1)c1cccc2c1C(=O)c1ccccc1-2 [FIV-61, 9-Oxo-9H-fluorene-1-carboxylic acid phenylamide]",IC50,[1]; IC50,28.6 µM
"COc1cccc([C@H]2Nc3ccc(C(=O)O)cc3[C@@H]3C=CC[C@H]23)c1 (stereo in doubt) [FII-1, 4-(3-methoxy-phenyl)-3a,4,5,9b-tetrahydro-3H-cyclopenta[c]quinoline-8-carboxylic acid]",inhibition of EF / Edema Toxin induced cAMP production (in words),[1],effective; also recorded: more active than PGE2-imidazole
same,IC50,[1]; IC50 values,1.8 to 7 µM
same,cytotoxicity in LDH assay (in words),RAW 264.7 cells,no obvious cytotoxic effect
same,Reduction of fluid accumulation,Cholera toxin (CT),No*
same,Toxicity,Cholera toxin (CT),No
same,accumulation of intestinal fluid after experimental infection with CT (in words),Cholera toxin (CT),did not cause a significant reduction in fluid accumulation
same,toxic effects in the animals (in words),Cholera toxin (CT),Toxic effects were observed
"COc1ccc(C(=O)O)cc1NC(=O)c1cccc2c1C(=O)c1ccccc1-2 [FIV-1, 4-Methoxy-3-[(9-oxo-9H-fluorene-1-carbonyl)-amino]-benzoic acid]",IC50,[1]; IC50,5.8 µM
"COC(=O)c1ccc(OC)c(NC(=O)c2cccc3c2C(=O)c2ccccc2-3)c1 [FIV-58, 4-Methoxy-3-[(9-oxo-9H-fluorene-1-carbonyl)-amino]-benzoic acid methyl ester]",IC50,[1]; IC50,7.2 µM
"COC(=O)c1cccc(NC(=O)c2cccc3c2C(=O)c2ccccc2-3)c1C [FIV-54, 2-Methyl-3-[(9-oxo-9H-fluorene-1-carbonyl)-amino]-benzoic acid methyl ester]",IC50,[1]; IC50,12.9 µM
"N#Cc1ccc(NC(=O)c2cccc3c2C(=O)c2ccccc2-3)c(Cl)c1 [FIV-70, 9-Oxo-9H-fluorene-1-carboxylic acid (2-chloro-4-cyano-phenyl)-amide]",IC50,[1]; IC50,50 µM
"O=C(O)c1cc(NC(=O)c2cccc3c2C(=O)c2ccccc2-3)ccc1O [FIV-35, 2-Hydroxy-5-[(9-oxo-9H-fluorene-1-carbonyl)-amino]-benzoic acid]",IC50,[1]; IC50,6.2 µM
"COc1ccccc1C1=CC(=O)CCC1 [FI-27, 3-(2-Methoxy-phenyl)-cyclohex-2-enone]",IC50,[1]; read-out: IC-50,35 µM
"COc1cccc(C2=CC(=O)CC(c3ccco3)C2)c1 (centres unmarked) [FI-1, 5-Furan-2-yl-3-(3-methoxy-phenyl)-cyclohex-2-enone]",inhibition of EF / Edema Toxin induced cAMP production (in words),[1],did not inhibit
same,IC50,[1]; IC50,20 µM
same,IC50,[1]; Selected assay results (IC50),20.4 µM and > 100 µM
same,inhibition of cholera toxin induced cAMP (in words),cholera toxin,did not inhibit
same,toxic effects in the animals (in words),Cholera toxin (CT); Swiss-Webster,toxic effects similar to FI-2
same,Reduction of fluid accumulation,Cholera toxin (CT),No
same,Toxicity,Cholera toxin (CT),Yes
same,accumulation of intestinal fluid after experimental infection with CT (in words),Cholera toxin (CT),did not cause a reduction in fluid accumulation
